Source: ChEMBL document CHEMBL5365452, “Discovery of (S)-N1-(thiazol-2-yl) pyrrolidine-1,2-dicarboxamide derivatives targeting PI3Ka/HDAC6 for the treatment of cancer” (Bioorg Med Chem Lett, 2023)

Columns and labels:
[1] = target: Histone deacetylase 1 (Homo sapiens, UniProt Q13547); test: Inhibition of HDAC1 (unknown origin)
[2] = target: T1, Histone deacetylase 8 (Homo sapiens, UniProt Q9BY41); test: Inhibition of HDAC8 (unknown origin)
T1 sequence (Q9BY41 whole entry): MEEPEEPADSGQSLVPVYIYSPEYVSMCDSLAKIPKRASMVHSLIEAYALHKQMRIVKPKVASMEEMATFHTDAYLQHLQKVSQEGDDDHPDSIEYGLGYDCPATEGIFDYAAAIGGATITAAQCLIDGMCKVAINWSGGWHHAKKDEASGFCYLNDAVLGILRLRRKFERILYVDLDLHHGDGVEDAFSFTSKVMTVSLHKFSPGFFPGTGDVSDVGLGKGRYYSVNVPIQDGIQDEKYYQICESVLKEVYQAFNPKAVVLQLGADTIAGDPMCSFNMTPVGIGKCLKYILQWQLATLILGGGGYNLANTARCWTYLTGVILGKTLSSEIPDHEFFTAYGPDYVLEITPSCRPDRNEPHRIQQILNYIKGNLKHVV

[3] = target: T2, Histone deacetylase 11 (Homo sapiens, UniProt Q96DB2); test: Inhibition of HDAC11 (unknown origin)
T2 sequence (Q96DB2 whole entry): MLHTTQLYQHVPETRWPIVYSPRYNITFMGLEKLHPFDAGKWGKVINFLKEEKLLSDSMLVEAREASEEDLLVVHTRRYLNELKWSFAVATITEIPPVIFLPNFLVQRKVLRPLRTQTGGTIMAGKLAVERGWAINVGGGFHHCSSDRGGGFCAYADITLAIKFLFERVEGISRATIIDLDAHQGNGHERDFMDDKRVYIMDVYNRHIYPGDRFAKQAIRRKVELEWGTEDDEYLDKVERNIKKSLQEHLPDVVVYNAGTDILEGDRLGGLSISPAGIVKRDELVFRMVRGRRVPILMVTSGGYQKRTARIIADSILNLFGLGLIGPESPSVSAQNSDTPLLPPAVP

[4] = target: Phosphatidylinositol 4,5-bisphosphate 3-kinase catalytic subunit beta isoform (Homo sapiens, UniProt P42338); test: Inhibition of PI3Kbeta (unknown origin)
Chain of Phosphatidylinositol 4,5-bisphosphate 3-kinase catalytic subunit beta isoform (P42338 whole entry, canonical isoform): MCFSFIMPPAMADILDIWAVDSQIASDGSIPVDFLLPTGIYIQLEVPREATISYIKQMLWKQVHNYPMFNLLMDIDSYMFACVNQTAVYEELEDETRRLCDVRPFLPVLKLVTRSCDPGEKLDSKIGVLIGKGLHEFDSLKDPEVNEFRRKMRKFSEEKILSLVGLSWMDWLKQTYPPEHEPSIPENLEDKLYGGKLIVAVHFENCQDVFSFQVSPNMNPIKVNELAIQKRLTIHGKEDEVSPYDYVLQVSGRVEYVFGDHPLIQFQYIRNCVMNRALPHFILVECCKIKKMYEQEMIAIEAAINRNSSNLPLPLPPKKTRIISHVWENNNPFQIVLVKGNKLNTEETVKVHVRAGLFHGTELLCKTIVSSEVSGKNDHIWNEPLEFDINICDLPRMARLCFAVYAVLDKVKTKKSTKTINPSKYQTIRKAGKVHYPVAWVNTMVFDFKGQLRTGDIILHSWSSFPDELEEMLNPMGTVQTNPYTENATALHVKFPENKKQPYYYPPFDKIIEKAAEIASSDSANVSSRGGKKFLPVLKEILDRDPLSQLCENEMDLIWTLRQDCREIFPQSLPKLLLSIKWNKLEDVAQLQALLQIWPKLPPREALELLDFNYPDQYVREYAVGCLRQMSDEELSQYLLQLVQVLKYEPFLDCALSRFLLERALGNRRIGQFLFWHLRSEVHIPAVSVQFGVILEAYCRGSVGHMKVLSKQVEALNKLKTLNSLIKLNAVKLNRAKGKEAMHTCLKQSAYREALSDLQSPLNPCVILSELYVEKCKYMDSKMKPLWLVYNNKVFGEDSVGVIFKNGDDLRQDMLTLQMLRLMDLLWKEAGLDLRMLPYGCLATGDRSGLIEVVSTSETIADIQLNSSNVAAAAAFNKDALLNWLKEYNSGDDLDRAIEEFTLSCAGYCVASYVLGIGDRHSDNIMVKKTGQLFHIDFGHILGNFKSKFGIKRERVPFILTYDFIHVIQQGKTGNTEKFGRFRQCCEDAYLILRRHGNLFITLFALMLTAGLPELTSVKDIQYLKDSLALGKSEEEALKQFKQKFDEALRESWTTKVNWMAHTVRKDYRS

[5] = target: Phosphatidylinositol 4,5-bisphosphate 3-kinase catalytic subunit gamma isoform (Homo sapiens, UniProt P48736); test: Inhibition of PI3Kgamma (unknown origin)
Chain of Phosphatidylinositol 4,5-bisphosphate 3-kinase catalytic subunit gamma isoform (P48736 whole entry, canonical isoform): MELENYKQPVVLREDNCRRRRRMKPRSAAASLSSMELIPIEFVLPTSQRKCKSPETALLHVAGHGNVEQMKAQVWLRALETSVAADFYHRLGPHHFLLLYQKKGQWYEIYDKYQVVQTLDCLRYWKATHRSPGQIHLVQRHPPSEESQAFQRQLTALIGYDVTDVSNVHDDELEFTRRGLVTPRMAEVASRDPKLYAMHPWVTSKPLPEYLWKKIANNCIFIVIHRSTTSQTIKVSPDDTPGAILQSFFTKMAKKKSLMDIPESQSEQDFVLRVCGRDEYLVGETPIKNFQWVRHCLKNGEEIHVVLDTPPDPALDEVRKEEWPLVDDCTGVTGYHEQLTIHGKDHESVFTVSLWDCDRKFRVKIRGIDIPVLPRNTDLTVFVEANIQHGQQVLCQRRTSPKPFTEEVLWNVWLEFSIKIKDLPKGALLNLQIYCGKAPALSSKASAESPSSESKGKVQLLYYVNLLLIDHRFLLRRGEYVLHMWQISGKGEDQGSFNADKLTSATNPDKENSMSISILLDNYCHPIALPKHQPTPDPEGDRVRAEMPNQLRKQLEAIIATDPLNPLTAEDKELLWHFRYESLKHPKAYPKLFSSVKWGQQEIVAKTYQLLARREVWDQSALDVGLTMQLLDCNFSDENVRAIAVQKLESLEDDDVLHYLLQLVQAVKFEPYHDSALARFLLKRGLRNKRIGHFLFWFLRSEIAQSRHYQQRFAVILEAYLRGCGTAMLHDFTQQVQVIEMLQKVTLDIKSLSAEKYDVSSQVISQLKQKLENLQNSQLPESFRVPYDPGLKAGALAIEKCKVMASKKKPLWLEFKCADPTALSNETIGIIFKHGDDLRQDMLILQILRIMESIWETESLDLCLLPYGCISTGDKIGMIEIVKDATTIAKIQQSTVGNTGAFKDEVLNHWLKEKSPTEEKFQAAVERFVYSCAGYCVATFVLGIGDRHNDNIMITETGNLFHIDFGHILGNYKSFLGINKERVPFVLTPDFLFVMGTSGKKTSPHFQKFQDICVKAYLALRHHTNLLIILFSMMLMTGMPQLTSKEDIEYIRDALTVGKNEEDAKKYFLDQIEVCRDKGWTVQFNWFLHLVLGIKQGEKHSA

[6] = target: T3, Phosphatidylinositol 4,5-bisphosphate 3-kinase catalytic subunit delta isoform (Homo sapiens, UniProt O00329); test: Inhibition of PI3Kdelta (unknown origin)
T3 sequence (O00329 whole entry): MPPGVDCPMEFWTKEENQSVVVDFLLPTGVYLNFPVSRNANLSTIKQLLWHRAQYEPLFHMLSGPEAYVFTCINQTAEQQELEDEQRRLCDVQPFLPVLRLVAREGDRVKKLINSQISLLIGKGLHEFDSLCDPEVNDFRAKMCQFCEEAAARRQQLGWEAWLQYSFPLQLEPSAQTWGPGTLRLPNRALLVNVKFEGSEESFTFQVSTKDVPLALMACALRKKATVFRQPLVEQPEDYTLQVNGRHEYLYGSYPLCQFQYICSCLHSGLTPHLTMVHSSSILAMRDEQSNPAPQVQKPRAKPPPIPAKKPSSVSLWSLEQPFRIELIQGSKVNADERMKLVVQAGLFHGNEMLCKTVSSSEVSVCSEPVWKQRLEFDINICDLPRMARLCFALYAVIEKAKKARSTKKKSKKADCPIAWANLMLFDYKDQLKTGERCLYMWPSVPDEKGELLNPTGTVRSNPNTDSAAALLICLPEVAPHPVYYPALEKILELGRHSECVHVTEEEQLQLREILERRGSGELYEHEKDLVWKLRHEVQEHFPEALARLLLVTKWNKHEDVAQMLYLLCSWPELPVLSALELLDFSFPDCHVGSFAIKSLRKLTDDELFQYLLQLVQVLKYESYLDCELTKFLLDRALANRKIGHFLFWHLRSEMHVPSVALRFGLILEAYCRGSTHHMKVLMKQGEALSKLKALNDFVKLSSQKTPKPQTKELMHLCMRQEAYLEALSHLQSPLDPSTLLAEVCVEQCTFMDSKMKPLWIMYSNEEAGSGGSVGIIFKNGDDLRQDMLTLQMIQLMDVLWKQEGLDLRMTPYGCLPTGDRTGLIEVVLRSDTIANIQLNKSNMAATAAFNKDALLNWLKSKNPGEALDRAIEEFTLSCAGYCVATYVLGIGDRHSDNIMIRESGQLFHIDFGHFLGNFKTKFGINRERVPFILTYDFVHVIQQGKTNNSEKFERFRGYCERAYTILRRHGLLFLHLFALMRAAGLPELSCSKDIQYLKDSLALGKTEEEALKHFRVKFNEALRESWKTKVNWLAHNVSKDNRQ

[7] = test system: T47D; test: Antiproliferative activity against human T47D cells
[8] = test system: MCF7; test: Antiproliferative activity against human MCF7 cells
[9] = test system: L-363; test: Antiproliferative activity against human L-363 cells

Chain of Histone deacetylase 1 (Q13547 whole entry): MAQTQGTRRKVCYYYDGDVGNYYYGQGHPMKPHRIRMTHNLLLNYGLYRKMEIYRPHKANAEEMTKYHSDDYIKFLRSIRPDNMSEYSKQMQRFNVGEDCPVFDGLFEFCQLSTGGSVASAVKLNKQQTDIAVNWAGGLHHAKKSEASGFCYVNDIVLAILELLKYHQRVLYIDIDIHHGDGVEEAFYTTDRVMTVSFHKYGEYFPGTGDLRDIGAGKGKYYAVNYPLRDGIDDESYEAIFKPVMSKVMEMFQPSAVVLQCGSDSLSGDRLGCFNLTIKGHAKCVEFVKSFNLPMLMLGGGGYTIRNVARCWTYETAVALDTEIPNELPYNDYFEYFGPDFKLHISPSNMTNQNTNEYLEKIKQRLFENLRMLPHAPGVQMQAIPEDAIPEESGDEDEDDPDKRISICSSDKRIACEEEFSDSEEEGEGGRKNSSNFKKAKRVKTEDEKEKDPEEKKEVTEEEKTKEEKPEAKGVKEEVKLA

Compound | IC50 [1] | IC50 [2] | IC50 [3] | IC50 [4] | IC50 [5] | IC50 [6] | IC50 [7] | IC50 [8] | IC50 [9]
Cc1nc(NC(=O)N2C[C@H](NC(=O)c3ccc(C(=O)NO)cn3)C[C@H]2C(N)=O)sc1-c1ccnc(C(C)(C)C(F)(F)F)c1 | 471 nM | > 2000 nM | > 2000 nM | > 1000 nM | 318 nM | 214 nM |  |  | 
Cc1nc(NC(=O)N2C[C@H](NS(=O)(=O)Cc3ccc(C(=O)NO)cc3)C[C@H]2C(N)=O)sc1-c1ccnc(C(C)(C)C(F)(F)F)c1 | > 2000 nM | > 2000 nM | 586 nM | 880 nM | 285 nM | 42 nM |  |  | 
Cc1nc(NC(=O)N2CCC[C@H]2C(N)=O)sc1-c1ccnc(C(C)(C)C(F)(F)F)c1 [ALPELISIB] |  |  |  |  |  |  | 2300 nM | 250 nM | 260 nM
O=C(CCCCCCC(=O)Nc1ccccc1)NO [VORINOSTAT] |  |  |  |  |  |  |  | 3560 nM | 
